Reference: patent US4374846A, “N-Amino alkyl indole compounds compositions containing same, and a method of using same in therapy of disorders of gastrointestinal motility” (Kali-Chemie Pharma GmbH, priority 1979, dated 1983)
Where two headings read alike, the source gives them in different places.

What was measured:
[1] = test system: stomach (gastric peristalsis); assay: Testing of the gastric peristalsis (measurements of the gastric pressure); type: in vivo, rats; conditions: for inhibition in vivo at 20 mg/kg: Rattus norvegicus, ip, read-out: Frequency decrease in %
Description: To determine the functioning of the gastric peristalsis, rats weighing about 200 g. are narcotized by means of ketamine hydrochloride and xylazine. A catheter is introduced into the Vena jugularis of the narcotized rats and a tracheal catheter into their trachea. A stomach probe is inserted into their stomach and tied thereto. Said probe is connected via a three-way cock with a Statham pressure imparting device (P 23 DB). The stomach is sealed off by a ligature at the pylorus and at the cardia. The stomach is filled with 3 ml. of an 0.9% aqueous sodium chloride solution. The pressure waves produced by the stomach are continuously registered by a suitable recording device such as by a Watanabe Multicorder (MC 641). In order to determine the effect of the compounds to be tested, they are dissolved in physiological sodium chloride solution or are suspended in Tylose MH 50 solution. Said solutions or suspensions are administered intraperitoneally to the rats in a dosis of 20 mg./kg. The amplitudes and frequencies of the pressure wave-like movements of the stomach as they occur before and after administration of the compound to be tested, are compared.

[2] = Determination of the acute toxicity (seven-day, single intraperitoneal dose); conditions: in vivo, ip, white NMRI mouse, fasting, single i.p. dose, probit analysis
Method: The acute seven-day toxicity is determined by intraperitoneal administration of a single dose of the respective compound to a fasting white NMRI mouse. The LD50 -values are calculated via EDV by a probit analysis as described in the book "Grundbegriffe der Biometrie" (Basic biometrical definitions) by L. Cavalli-Sforza, page 153 et seq., published by Gustav Fischer Verlag, Stuttgart, 1964.

[3] = gastric pressure waves, narcotized rats, 20 mg./kg. intraperitoneally, before vs after administration

| Compound | inhibition in vivo at 20 mg/kg [1, 3] [%] | Factor of the increase in amplitude [1, 3] | LD50 at 168 h [2] [mg/kg] | inhibition in vivo at 20 mg/kg [1] [%] |
| --- | --- | --- | --- | --- |
| CCOc1c(C(=O)OC)n(CCN(C)C)c2ccc(Cl)cc12.Cl [(C), 1-(β-dimethylaminoethyl)-2-methoxy carbonyl-3-ethoxy-5-chloro indole hydrochloride] | 9 | 1.4 | 141 | – |
| COc1c(C(=O)O)n(CCN(C)C)c2ccccc12 [(K), 1-(β-dimethylaminoethyl)-2-hydroxy carbonyl-3-methoxy indole] | 21 | 3.6 | 967 | – |
| COc1c(C(N)=O)n(CCN(C)C)c2ccccc12 [(L), 1-(β-dimethylaminoethyl)-2-amino carbonyl-3-methoxy indole] | 28 | 13.9 | 68 | – |
| COC(=O)c1c(OCc2ccccc2)c2cc(Cl)ccc2n1CCN(C)C.Cc1ccc(S(=O)(=O)O)cc1 [(E), 1-(β-dimethylaminoethyl)-2-methoxy carbonyl-3-benzyloxy-5-chloroindole toluene-4-sulfonate] | – | 0.6 | 283 | -2 |
| CCOC(=O)c1c(OCC)c2ccc(Cl)cc2n1CCN(C)C.Cc1ccc(S(=O)(=O)O)cc1 [(F), 1-(β-dimethylaminoethyl)-2-ethoxy carbonyl-3-ethoxy-6-chloro indole toluene-4-sulfonate] | – | 10.9 | 226 | 5 |
| COC(=O)c1c(OC)c2ccccc2n1CCN(C)C.Cl [(A), 1-(β-Dimethylaminoethyl)-2-methoxy carbonyl-3-methoxy-indole hydrochloride] | 3.3 | 6.2 | 171 | – |
| COC(=O)c1c(OC(C)C)c2cc(C)ccc2n1CCN(C)C.Cl [(D), 1-(β-dimethylaminoethyl)-2-methoxy carbonyl-3-isopropyloxy-5-methyl indole hydrochloride] | 19 | 6.9 | 137 | – |
| CNC(=O)c1c(OC)c2ccccc2n1CCN(C)C [(M), 1-(β-dimethylaminoethyl)-2-methylamino carbonyl-3-methoxy indole] | 13 | 21.4 | 68 | – |
| COC(=O)c1c(OC)c2ccccc2n1CCCCN(C)C.Cc1ccc(S(=O)(=O)O)cc1 [(H), 1-(δ-dimethylaminobutyl)-2-methoxy carbonyl-3-methoxy indole toluene-4-sulfonate] | – | 3.5 | 164 | 11 |
| COC(=O)c1c(OC)c2ccc(C)cc2n1CCN(C)C.Cl [(B), 1-(β-dimethylaminoethyl)-2-methoxy carbonyl-3-methoxy-6-methyl indole hydrochloride] | 7 | 22.7 | 68 | – |
| COC(=O)c1c(OC)c2ccccc2n1CCCNC(C)C.Cl [(G), 1-(γ-isopropylaminopropyl)-2-methoxy carbonyl-3-methoxy indole hydrochloride] | 29 | 8.3 | 91 | – |
| COC(=O)c1c(OC)c2ccccc2n1CCCN1CCCCC1 [(I), 1-(γ-N-piperidinopropyl)-2-methoxy carbonyl-3-methoxy indole maleinate] | 15 | 8.6 | 141 | – |
